Test systems include A498 renal; A549 NSCLC; EKVX NSCLC; HCC-2998 colon; HT29 colon; IGROV1 ovarian; K-562 leukemia; MCF7 breast; MDA-MB-435; NCI-H226 lung; NCI-H460 lung; SW-620 colon; T-47D breast; UACC-62 melanoma; UO-31 renal; ACHN renal; CCRF-CEM leukemia; HOP-62 NSCLC; M14 melanoma; MALME-3M melanoma.
Common to all, as to test: NCI anticancer screen, dose series, 48 h

Structures are written as SMILES.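 Test compounds were applied to cells in 96-well plates for 48 hours at 5 doses. TGI: total growth inhibition.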 Some results are limits rather than exact numbers.

With `COc1ccc(Nc2nc(N)c(C(=O)c3ccc(OC)cc3)s2)cc1`, the TGI in the experiment with A498 renal was above 64.7 µM; with A549 NSCLC, above 44.5 µM; in the experiment on EKVX NSCLC it was above 89.1 µM; in the experiment with HCC-2998 colon, above 29.7 µM; with HT29 colon it was above 48.5 µM; in the experiment on IGROV1 ovarian it was 32 µM. The TGI with K-562 leukemia was above 35.8 µM; with MCF7 breast it was above 100 µM; with MDA-MB-435, 0.208 µM; with NCI-H226 lung it was 75.8 µM; in the experiment on NCI-H460 lung it was above 54.8 µM; in the experiment with SW-620 colon, above 37.5 µM. Besides, the TGI with T-47D breast is above 100 µM; with UACC-62 melanoma it was above 100 µM; in the experiment with UO-31 renal, 44.3 µM.
On to `O=c1n(-c2ccccc2)c(=O)n2n1C1CCC2CC1`, for which the TGI with A498 renal, in the experiment with A549 NSCLC, in the experiment on ACHN renal, in the experiment with CCRF-CEM leukemia, in the experiment with EKVX NSCLC and in the experiment with HOP-62 NSCLC was above 100 µM in each case. Moreover, the TGI in the experiment with HT29 colon, in the experiment on IGROV1 ovarian, in the experiment on K-562 leukemia, in the experiment on M14 melanoma, in the experiment with MCF7 breast and in the experiment on MDA-MB-435 was above 100 µM in each case. Moreover, the TGI in the experiment on NCI-H226 lung, in the experiment with NCI-H460 lung, with SW-620 colon, in the experiment on T-47D breast, with UACC-62 melanoma and with UO-31 renal was above 100 µM in each case.
On to `NC(C(F)(F)F)(C(F)(F)F)P(=O)(c1ccccc1)c1ccccc1`, for which the TGI in the experiment on A549 NSCLC, with ACHN renal, in the experiment with CCRF-CEM leukemia, with EKVX NSCLC, in the experiment with HCC-2998 colon and in the experiment on HOP-62 NSCLC was above 100 µM each time. The TGI in the experiment with HT29 colon, in the experiment with IGROV1 ovarian, with K-562 leukemia, with M14 melanoma, in the experiment on MALME-3M melanoma and in the experiment on MCF7 breast was above 100 µM throughout. The TGI in the experiment with MDA-MB-435, in the experiment on NCI-H226 lung, in the experiment with NCI-H460 lung, with SW-620 colon, with T-47D breast and with UACC-62 melanoma was above 100 µM throughout. Further, the TGI in the experiment on UO-31 renal is above 100 µM.
As to `CC1(C)OC(=O)C(C)(C)OC1=O`, the TGI with A498 renal, in the experiment on A549 NSCLC, in the experiment on ACHN renal, with CCRF-CEM leukemia, in the experiment with EKVX NSCLC and in the experiment on HOP-62 NSCLC was above 100 µM in each case. Also, the TGI in the experiment with HT29 colon, with IGROV1 ovarian, in the experiment on K-562 leukemia, with M14 melanoma, with MALME-3M melanoma and in the experiment on MCF7 breast was above 100 µM in each case. For the same compound, the TGI with MDA-MB-435, in the experiment on NCI-H226 lung, with NCI-H460 lung, with SW-620 colon, with T-47D breast and with UACC-62 melanoma was above 100 µM each time. The compound further had a TGI in the experiment with UO-31 renal above 100 µM.
Turning to `CC1(C)C=C(/C=N/Nc2ccc(Br)cc2)C(C#N)=C(O)C1(C#N)C#N`, the TGI in the experiment on A549 NSCLC, in the experiment on ACHN renal, in the experiment with CCRF-CEM leukemia, in the experiment on EKVX NSCLC, in the experiment with HCC-2998 colon and with HOP-62 NSCLC was above 100 µM each time. The TGI with HT29 colon, in the experiment with IGROV1 ovarian, with K-562 leukemia, with M14 melanoma, in the experiment with MALME-3M melanoma and in the experiment on MCF7 breast was above 100 µM each time. Further, the TGI in the experiment on MDA-MB-435, in the experiment with NCI-H226 lung, in the experiment with NCI-H460 lung, in the experiment on SW-620 colon, in the experiment with T-47D breast and in the experiment on UACC-62 melanoma was above 100 µM throughout. The TGI in the experiment on UO-31 renal is 86 µM.
`CCOC(=O)c1cc(C2CCN(CC(C)CC)C2=S)c(C(=O)/C=C(/C)N)[nH]1` (configuration not stated): the TGI in the experiment on A498 renal, in the experiment with ACHN renal, in the experiment with CCRF-CEM leukemia, with EKVX NSCLC, in the experiment with HOP-62 NSCLC and in the experiment with HT29 colon was above 50 µM throughout. Also, the TGI in the experiment with IGROV1 ovarian, with K-562 leukemia, with M14 melanoma, in the experiment with MALME-3M melanoma, with MCF7 breast and in the experiment with MDA-MB-435 was above 50 µM throughout. For the same compound, the TGI in the experiment on NCI-H226 lung, in the experiment on NCI-H460 lung, with SW-620 colon, in the experiment with T-47D breast, in the experiment with UACC-62 melanoma and in the experiment on UO-31 renal was above 50 µM throughout.
Take `O=c1oc2cc(O)ccc2c(O)c1C(c1ccccn1)c1c(O)c2ccc(O)cc2oc1=O`: the TGI in the experiment with A498 renal, in the experiment with A549 NSCLC, in the experiment on ACHN renal, with CCRF-CEM leukemia, in the experiment with EKVX NSCLC and with HCC-2998 colon was above 100 µM in each case. The TGI in the experiment with HOP-62 NSCLC, in the experiment with HT29 colon, in the experiment on IGROV1 ovarian, in the experiment with K-562 leukemia, in the experiment on M14 melanoma and in the experiment on MCF7 breast was above 100 µM throughout. Moreover, the TGI in the experiment with MDA-MB-435, in the experiment on NCI-H226 lung, with NCI-H460 lung, in the experiment on SW-620 colon, in the experiment with T-47D breast and with UACC-62 melanoma was above 100 µM in each case. Moreover, the TGI with UO-31 renal was above 100 µM.

The values above are taken from PubChem BioAssay (NCI).
